Source: patent publication US10111854B2, “Synthesis and use of amine-containing flavonoids as potent anti-leishmanial agents” (The Hong Kong Polytechnic University, priority 2014, dated 2018)
Like-named read-outs stand apart in the source and are kept apart here.

Key:
[1] = Cytotoxicity, L929 fibroblasts; format: cell-based, mouse; details: mouse
Method: (§1) IC50 values of known antileishmanials and the amine-containing flavonoid monomers of the present invention to promastigotes (L. amazonensis LV78, L major FV1, L. donovani HU3, L. donovani 39), macrophages (Raw 264.7 and PEM) and mouse fibroblast (L929) were determined. The anti-promastigotes activities and cytotoxicity of the amine-containing flavonoid monomers of the invention are shown in Table 1.

[2] = tested on: L. donovani Ld39 amastigotes (SSG-resistant); assay: Anti-amastigote activity in infected PEM, L. donovani Ld39; format: cell-based; details: for IC50: Leishmania donovani, 72 h, infected PEM, 3 days, Giemsa, SSG-resistant; for Selective index (a)/(c): IC50 RAW264.7 over IC50 L. donovani Ld39 amastigotes
In short: (§2)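 Mouse peritoneal elicited macrophages on cover slips, infected overnight at 37 °C with late-log promastigotes at 20:1 parasite:macrophage, were washed and exposed to compound for 72 h at 37 °C. Giemsa staining gave percent infected macrophages and amastigotes per 100 macrophages, from which IC50 was calculated.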

[3] = tested on: L. donovani HU3 promastigotes; assay: Anti-promastigote activity (MTS assay), L. donovani HU3; format: cell-based; details: Leishmania donovani, 72 hours
In short: (§3)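 Promastigotes (1×10^5 per well) in Schneider's medium pH 6.9 with 10% FBS, exposed to serial compound concentrations for 72 h at 27 °C. Viability by MTS/PMS reduction over 4 h, OD 490 nm; IC50 derived.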

[4] = tested on: L. amazonensis LV78 promastigotes; assay: Anti-promastigote activity (MTS assay), L. amazonensis LV78; format: cell-based; details: Leishmania amazonensis, 72 hours
In short: as §3

[5] = tested on: L. major FV1 promastigotes; assay: Anti-promastigote activity (MTS assay), L. major FV1; format: cell-based; details: Leishmania major, 72 hours
In short: as §3

[6] = tested on: amastigotes (L. amazonensis LV78, L. braziliensis UA847, L. donovani HU3, L. donovani 39); assay: Anti-amastigote activity, strain not given; format: cell-based; details: strain not specified; visceral and cutaneous Leishmania; read-out: IC50 against amastigotes
Method: (§4) Mouse peritoneal elicited macrophages (PEM) were obtained as previously described (2). A round cover slip (12 mm in diameter) was placed into each well of 24-well culture plate. Mouse PEM were resuspended in supplemented DMEM media containing 10% heat inactivated FBS (v/v), 100 U/mL penicillin and 100 μg/mL streptomycin and seeded into each well at a cell density of 1×10^5 cells per 500 μL. Macrophages were allowed to attach overnight. Non-adherent cells were removed by gentle washing with un-supplemented DMEM media twice. Adherent macrophages were infected with late-log promastigotes at a parasite-to-macrophage ratio of 20:1 overnight at 37° C. with 5% CO2. Non-internalized promastigotes were removed by washing twice with un-supplemented DMEM media. Infected macrophages were further incubated in 500 μL of supplemented DMEM media in the presence or absence of FM for 72 hours at 37° C. After incubation, cover slips were stained with Giemsa and the percentage of macrophages infected and number of amastigotes per 100 macrophages was enumerated.
(§5) PEM cells were infected with late-log promastigotes (L. amazonensis LV78, L. braziliensis UA847, L. donovani HU3, L. donovani 39) for 24 hr at 37° C. Infected macrophages were then treated with various antileishmanials and incubated for 3 days at 37° C. After 3 days, the cover slips were stained with Giemsa. The number of amastigotes per 100 macrophages were determined and used to calculate IC50 values.

[7] = tested on: L. amazonensis LV78 amastigotes; assay: Anti-amastigote activity in infected PEM, L. amazonensis LV78; format: cell-based; details: for Selective index (a)/(b): IC50 RAW264.7 over IC50 L. amazonensis LV78 amastigotes; for IC50: Leishmania amazonensis, 72 h, infected PEM, 3 days, Giemsa
In short: as §2

[8] = tested on: L. braziliensis UA847 amastigotes; assay: Anti-amastigote activity in infected PEM, L. braziliensis UA847; format: cell-based; details: Leishmania braziliensis, 72 h, 3 days, Giemsa, read-out: Anti-amastigote activity IC50, L. baziliensis UA847
Method: as §4, §5

[9] = Preliminary oral bioavailability, single time point plasma concentration oral vs i.v.; format: in vivo, Balb/c mice; details: hydrochloride salt in saline, 30 minutes, dose-normalized
Method: FM01.HCl and FM05.HCl were administered to Balb/c mice via intravenous and passive oral administration. The blood plasma was collected at 30 minutes for LC-MSMS analysis and used for preliminary oral bioavailability screening. The corresponding plasma concentration was normalized by the administered dose for oral bioavailability calculation.
FM01 and FM05 hydrochloride salt was dissolved in saline and administered to Balb/c mice either orally or i.v. Plasma level of FM01 and FM05 was determined 30 minutes later by LC-MS and their identity confirmed by LC-MS/MS. Plasma concentration from oral feeding was divided by that obtained from i.v. administration. […] In these preliminary studies, the ratios were 45% for FM01 and 64% for FM05 (FIG. 3).

[10] = tested on: L. donovani HU3 amastigotes; assay: Anti-amastigote activity in infected PEM, L. donovani HU3; format: cell-based; details: for IC50: Leishmania donovani, 72 h, infected PEM, 3 days, Giemsa, SSG-sensitive
In short: as §2

[11] = tested on: L. donovani Ld39 promastigotes; assay: Anti-promastigote activity (MTS assay), L. donovani Ld39; format: cell-based; details: Leishmania donovani, 72 hours
In short: as §3

[12] = tested on: promastigotes (L. amazonensis LV78, L major FV1, L. donovani HU3, L. donovani 39); assay: Anti-promastigote activity, strain not given; format: cell-based; details: Leishmania amazonensis; strain not specified; read-out: IC50 against promastigotes
Method: Anti-promastigote activity was determined according to previous procedures (1) by Cell Titer 96® Aqueous Assay (Promega) that employed a tetrazolium compound. Promastigotes were seeded into 96-well flat bottom microtiter plate at 1×10^5 cells per well in a final volume of 100 μL medium and incubated with a series of concentrations of synthetic FM. Parasites were incubated at 27° C. for 72 hours. After 72 hours of incubation, 10 μL of MTS:PMS mixture [MTS:2-(4,5-Dimethylthiazol-2-yl-)-5-[3-(carboxymethoxy)phenyl]-2-(4-sulfophenyl)-2H-tetrazolium); PMS: phenazine methosulfate both purchased from Sigma] was added into each well of microtiter plate. The plate was then incubated at 27° C. for 4 hours for color development. After 4 hours of incubation, the OD values were determined at 490 nm using automatic microtiter plate reader (Bio-Rad).
as §1

[13] = Pharmacokinetics of FM05 hydrochloride salt, oral; format: in vivo, Balb/c mice; details: male, Balb/c, mouse, plasma, 42 mg/kg, oral, saline; for half-life: po
Method: Based on the result of the preliminary in vivo study, FM05 hydrochloride salt was selected for further investigation. FM05 hydrochloride salt was dissolved in saline at 4 mg/ml and administered to male balb/c at 42 mg/kg. Blood plasma samples were collected at various time points for pharmacokinetics analysis (n=2 to 3 for each time point).

[14] = Cytotoxicity, RAW264.7 macrophages; format: cell-based; details: mouse, RAW264.7 macrophage cells; murine macrophages RAW264.7
Method: Promastigotes of visceral L. donovani Ld39 and LdHU3, and cutaneous L. amazonensis LV78, L. braziliensis UA847 and L. major FV1 were employed in the study. All strains were cultured in Schneider's Drosophila Medium (Invitrogen), pH 6.9 supplemented with 10% (v/v) heat inactivated fetal bovine serum (Hyclone) with 4 mM glutamine (Sigma) and 25 μg/mL gentamicin solution (Invitrogen) at 27° C. for 4 days. RAW264.7 cells were cultured in supplemented DMEM media with 10% heat inactivated FBS and 100 U/mL penicillin and 100 μg/mL of streptomycin. They were maintained at 37° C. in a humidified atmosphere with 5% CO2. The cells were split constantly after a confluent monolayer has been formed. The cells were harvested by a cell scraper.
as §1

[15] = Cytotoxicity, peritoneal elicited macrophages (PEM); format: cell-based, mouse; details: mouse, peritoneal elicited macrophages (PEM), peritoneal elicited macrophages; read-out: Cytotoxicity IC50, PEM
[16] = tested on: RAW264.7 cells; assay: Reactive oxygen species (ROS) level, DCFDA, RAW264.7; format: cell-based, murine
Method: (§6) 50,000 RAW264.7 were seeded in each well of black 96-well plates overnight. Next day, RAW264.7 cells were pre-loaded with 10 μM dichlorofluorescein diacetate (DCFDA) (Abcam) for 1 hr at 37° C. with 5% CO2. A control of non-DCFDA stained cells was also included. The DCFDA-contained supplemented DMEM media was removed. The cells were re-suspended with 10 μM or 30 μM of respective tested compounds and positive control, tert-butyl hydroperoxide. In Leishmania, 1×10^7 promastigotes were also pre-loaded with 10 μM DCFDA at 27° C. for 1 hr. After removing the DCFDA-contained media, the promastigotes were seeded into black 96-well plate and incubated with 30 μM of respective compounds or positive control. The ROS level was determined at different periods of time including 2, 4, 6, 8, 20, 46 and 72 hr using microplate reader (excitation: 485 nm and emission: […]).
(§7) The ROS levels in both macrophage RAW264.7 and L. amazonensis promastigotes was measured by dichlorofluorescein diacetate (DCFDA) dye which is permeable to the cells. With oxidative stress, DCFDA would be oxidized to fluorescent DCF which is an indicator of intracellular ROS level. RAW cells or L. amazonensis promastigotes were pre-loaded with 10 μM of DCFDA for 1 hr, washed and exposed to 39, FM09, pentamidine and amphotericin B for different period of time (2, 4, 6, 8, 20, 46 and 72 hr). The fluorescence level was measured at the 520 nm using 485 nm as an excitation wavelength. 0.1% DMSO or 0.3% DMSO was used as a solvent control. The fluorescent value has been subtracted from non-DCFDA stained cells. The values were presented as mean±standard error of mean.

[17] = tested on: L. amazonensis LV78 promastigotes; assay: Reactive oxygen species (ROS) level, DCFDA, promastigotes; format: cell-based; details: 30 μM
Method: as §6, §7

Compound | IC50 [1] | IC50 [2] | IC50 [3] | IC50 [4] | IC50 [5] | IC50 [6] | Selective index (a)/(b) [7] | IC50 [7] | IC50 [8] | Ratio of plasma concentration from oral feeding to i.v. administration [9] | IC50 [10] | IC50 [11] | IC50 [12] | Selective index (a)/(c) [2] | other results
O=c1cc(-c2ccc(OCCN3CCN(Cc4ccncc4)CC3)cc2)oc2ccccc12 [FM01, 2-(4-(2-(4-(pyridin-4-ylmethyl)piperazin-1-yl)ethoxy)phenyl)-4H-chromen-4-one] | > 33 µM | > 10 µM | 1.2 ± 0.3 µM | 6 ± 1.8 µM | 5.6 ± 1 µM | < 5 µM | 28.8 | 1.8 ± 0.6 µM | 8.4 µM | 45% | > 9 µM | 0.7 ± 0.1 µM | < 5 µM |  | 
O=c1cc(-c2ccc(OCCC3CCN(Cc4ccncc4)CC3)cc2)oc2ccccc12 [FM05, 2-(4-(2-(1-(pyridin-4-ylmethyl)piperidin-4-yl)ethoxy)phenyl)-4H-chromen-4-one] | > 100 µM | > 10 µM | 0.4 ± 0.1 µM | 5.1 ± 1 µM | 3.9 ± 0.8 µM | < 5 µM |  | 4.1 ± 0.9 µM |  | 64% | 3.5 µM | 0.3 ± 0.1 µM | < 5 µM | <3.7 | half-life ([13]; read-out: Half-life (Distribution and absorption)): 0.417 h; half-life ([13]; read-out: Half-life (Elimination)): 3.37 h; Cmax [13]: 313 ng/mL; Tmax [13]: 2 h; Selective index (a)/(b) ([10]; IC50 RAW264.7 over IC50 L. donovani HU3 amastigotes): 10.5
N=C(N)c1ccc(OCCCCCOc2ccc(C(=N)N)cc2)cc1 [Pentamidine] |  | > 30 µM |  | 15.7 ± 5.2 µM | 17.8 ± 2.2 µM |  | 1.9 | 15.7 ± 5.2 µM | 1.1 ± 0.1 µM |  |  | 5.3 ± 0.9 µM |  | <1 | IC50 [14]: 30 ± 5 µM; IC50 [15]: 30.4 ± 11 µM; RAW264.7 ROS Level, Relative fold (RF) ([16]; 10 μM, 2 hr): 0.9 fold; RAW264.7 ROS Level, Relative fold (RF) ([16]; 10 μM, 4 hr): 0.9 fold; RAW264.7 ROS Level, Relative fold (RF) ([16]; 10 μM, 6 hr): 0.9 fold; RAW264.7 ROS Level, Relative fold (RF) ([16]; 10 μM, 8 hr): 0.8 fold; RAW264.7 ROS Level, Relative fold (RF) ([16]; 10 μM, 20 hr): 0.8 fold; ROS induction in macrophages ([16]; 10 μM, RAW264.7): No ROS induction; RAW264.7 ROS Level, Relative fold (RF) ([16]; 30 μM, 2 hr): 1.1 fold; RAW264.7 ROS Level, Relative fold (RF) ([16]; 30 μM, 4 hr): 1.2 fold; RAW264.7 ROS Level, Relative fold (RF) ([16]; 30 μM, 6 hr): 1.1 fold; RAW264.7 ROS Level, Relative fold (RF) ([16]; 30 μM, 20 hr): 0.9 fold; RAW264.7 ROS Level, Relative fold (RF) ([16]; 30 μM, 46 hr): 0.9 fold; L. amazon LV78 promastigote ROS Level, Relative fold (RF) ([17]; 2 hr): 1.3 fold; L. amazon LV78 promastigote ROS Level, Relative fold (RF) ([17]; 4 hr): 1.4 fold; L. amazon LV78 promastigote ROS Level, Relative fold (RF) ([17]; 6 hr): 1.5 fold; L. amazon LV78 promastigote ROS Level, Relative fold (RF) ([17]; 20 hr): 1.8 fold; L. amazon LV78 promastigote ROS Level, Relative fold (RF) ([17]; 46 hr): about 2.6 fold; L. amazon LV78 promastigote ROS Level, Relative fold (RF) ([17]; 46 hr, listed as pentamidine): 2.6 fold; L. amazon LV78 promastigote ROS Level, Relative fold (RF) ([17]; 72 hr): ~3.4 fold
